# Measured values reported in patent US12570612B2, “Substituted nitrogen heterocyclic compound and anesthetic effect thereof” (priority 2019, dated 2026).
# “Also recorded” adds a separate entry of the source. Like-named read-outs stand apart in the source and are kept apart here.
# Experiments:
# Sprague-Dawley rats [1] = assay: animal or person; format: in vivo; conditions: LORR, up and down method, tail vein, rats; class symbols
# Excerpt: (§1) Evaluating indicator: The end point of anesthesia: the disappearance of forepaw righting reflex (lorr) was used as the end point of anesthesia; General anesthesia effect: the disappearance of forepaw righting reflex in rats lasting for 30 seconds is taken as the index of general anesthesia effect; Anesthesia recovery index: the recovery of rat forepaw righting reflex was used as the index of anesthesia recovery.
# Sprague-Dawley rats [2] = assay: animal or person; format: in vivo; conditions: LORR, up and down method, tail vein, rats, class symbols
# Excerpt: as §1, with “LORR” for “the disappearance of forepaw righting reflex (lorr)”
# Sprague-Dawley rats [3] = assay: animal or person; conditions: for Approximate therapeutic index / Minimal lethal dose: rats
# Protocol: Adult male Sprague-Dawley rats (250-300 g) were selected for the experiment. […] The anesthesia effects of the compounds were assessed in rats using a LORR assay and a period >30 s was considered as an indicator of general anesthesia.
# Sprague-Dawley rats [4] = assay: Pharmacological characteristics at equivalent doses (2ED50), Group A compounds; format: in vivo; design: Sedation duration: unit not given here; conditions: 2ED50, tail vein; for Types and incidence of adverse reactions: (animals affected/animals)
# H295R cell line = assay: Adrenocortical function in vitro test: secretion of cortisol and corticosterone, Group A compounds; format: cell-based; conditions: H295 cells; for EC50: 0.1-10000 nM, HPLC-MS/MS
# Sprague-Dawley rats [5] = assay: Pharmacological effect and adverse reactions under the equivalent dose (2ED50), Group C compounds; format: in vivo
# Excerpt: Evaluation index: onset time: from the completion of drug injection to the disappearance of forepaw righting reflex in rats; Duration of anesthesia: the time from the disappearance of rat forepaw righting reflex to the recovery of rat forepaw righting reflex; Recovery time of anesthesia: the time from the […] to complete recovery;
# [6] = Rattus norvegicus, read-out: ED50
# [7] = Homo sapiens, read-out: EC50 (Corticosterone)
# [8] = Homo sapiens, read-out: EC50 (Cortisol)
# [9] = equivalent dose (2ED50), number of rats of n = 8
Structure (SMILES),ED50 (Sprague-Dawley rats [3]; Rattus norvegicus) [mg/kg],Approximate therapeutic index (Sprague-Dawley rats [3]),Minimal lethal dose (Sprague-Dawley rats [3]) [mg/kg],Onset time (Sprague-Dawley rats [4]) [min],Righting reflex duration (Sprague-Dawley rats [4]) [min],Types and incidence of adverse reactions (Sprague-Dawley rats [4]),Corticosterone as an indicator to determine the presence of inhibition (H295R cell line),Cortisol as an indicator to determine the presence of inhibition (H295R cell line),EC50 (H295R cell line; [7]) [nM],EC50 (H295R cell line; [8]) [nM],also measured
CC#CCOCC(OC)(OC)C(=O)c1cncn1[C@H](C)c1ccccc1 [Compound D73],,,,,,,,,,,ED50 (Sprague-Dawley rats [1]): +++++ (+++++ indicates that the measured ED50 is greater than 6.00 mg/kg (excluding 6.00 mg/kg))
CC(=O)COCC(=O)c1c(F)ncn1[C@H](C)c1ccccc1 [Compound C84],,,,,,,,,,,ED50 (Sprague-Dawley rats [2]; [6]): 10 to 20 mg/kg
CC(=O)OCC(=O)c1cncn1[C@H](C)c1ccccc1 [Compound C53],,,,,,,,,,,ED50 (Sprague-Dawley rats [2]; [6]): 10 to 20 mg/kg
CC#CC(C)OC(=O)c1ccnn1[C@H](C)c1ccccc1 (stereo partly drawn) [Compound A11],1 to 2,>4,>8,0.41 ± 0.15,2.65 ± 1.10,"Red urine(6/6), General; also recorded: Tremor(4/6), Hindlimb; also recorded: rigidity (2/6),; also recorded: Convulsion(1/6),; also recorded: Euphoria(1/6)",0,0,> 100,> 100,
CC#CCOC(=O)c1ccnn1[C@H](C)c1ccccc1 [Compound A23],2 to 6,>5,>11,0.48 ± 0.14,2.28 ± 1.83,"Red and urine(8/8), Euphoria(6/8), and Hindlimb rigidity and (2/8), Tremor(1/8), and Convulsions(1/8)",0,0,> 100,> 100,
C=CC1(OC(=O)c2c(F)cnn2[C@H](C)c2ccccc2)COC1 [Compound A87],0.5 to 1,>18,>13,0.30 ± 0.12,2.21 ± 0.24,,0,0,> 1000,> 1000,
C[C@H](c1ccccc1)n1nccc1C(=O)OCC1CC1 [Compound A3],,>6,>8,0.13 ± 0.04,2.73 ± 1.08,"Red urine(8/8), Hindlimb; also recorded: rigidity (1/8)",0,0,,,"ED50 (Sprague-Dawley rats [3]; LORR in rats, tail vein, brackets = 95% confidence limit): C (C indicates that the measured ED50 is in the range of 1.00-2.00 mg/kg (excluding 1.00 mg/kg, including 2.00 mg/kg)); Sedation duration (Sprague-Dawley rats [4]): 5.76 ± 0.80; EC50 (H295R cell line; read-out: EC50 (Corticosterone)): > 1000 nM; EC50 (H295R cell line; read-out: EC50 (Cortisol)): > 1000 nM"
CC#CC(=O)c1cncn1[C@H](C)c1ccccc1 [Compound C54],,,,,,,,,,,ED50 (Sprague-Dawley rats [2]; [6]): 20 to 30 mg/kg
CCOC(=O)c1c(F)cnn1[C@H](C)c1ccccc1 [Compound A70],1 to 2,>6,>12,0.31 ± 0.08,2.51 ± 1.03,,0,0,> 100,> 100,
C#CC1(OC(=O)c2cc(F)nn2[C@H](C)c2ccccc2)COC1 [Compound A53],2 to 6,>6,>14,0.53 ± 0.28,3.01 ± 1.22,"Red and urine(8/8), Tremor(2/8)",0,0,> 100,> 100,
CC(=O)C1(OC(=O)c2ccnn2[C@H](C)c2ccccc2)COC1 [Compound A8],1 to 2,>7,>9,0.57 ± 0.20,2.70 ± 2.52,"Red urine(8/8),; also recorded: Tremor(2/8),; also recorded: Euphoria(1/8)",0,0,> 1000,> 1000,
C=CC#CC(C)(C)OC(=O)c1ccnn1[C@H](C)c1ccccc1 [Compound A16],2 to 6,>4,>12,0.55 ± 0.21,2.55 ± 1.54,,0,0,> 100,> 100,
CC#CCOC(=O)c1c(F)cnn1[C@H](C)c1ccccc1 [Compound A72],0.04 to 0.5,>100,>11,0.41 ± 0.17,0.71 ± 0.20,"Red and urine(8/8), Tremor(1/8), and Hindlimb rigidity (1/8)",0,0,> 1000,> 1000,
CC#CCOCC(=O)c1ccnn1[C@H](C)c1ccccc1 [Compound C1],,,,,,,,,,,"ED50 (Sprague-Dawley rats [2]): ++++ (++++ indicates that the measured ED50 is in the range of 2.00-10.00 mg/kg (excluding 2.00 mg/kg, including 6.00 mg/kg)); Righting reflex duration (Sprague-Dawley rats [5]; 2ED50, tail vein, rats, n=8): 0.90 ± 0.30 min; Sedation duration (Sprague-Dawley rats [5]; 2ED50, tail vein, rats, n=8): 9.06 ± 1.21 min; Onset time (Sprague-Dawley rats [5]; 2ED50, tail vein, rats, n=8, unit min): <1 min; Adverse reaction: Convulsions (Sprague-Dawley rats [5]; [9]): 0; Adverse reaction: Cough, broken-winded (Sprague-Dawley rats [5]; [9]): 0; Adverse reaction: Euphoria (Sprague-Dawley rats [5]; [9]): 2; Adverse reaction: Red urine (Sprague-Dawley rats [5]; [9]): 8; Adverse reaction: Slower breathing, Tetany convulsion (Sprague-Dawley rats [5]; [9]): 0; Adverse reaction: Systemic stiffness, Convulsions, Opisthotonus (Sprague-Dawley rats [5]; [9]): 0; Adverse reaction: Tongue stretching (Sprague-Dawley rats [5]; [9]): 1; Adverse reaction: Tremor (Sprague-Dawley rats [5]; [9]): 0; Adverse reaction: the four limbs rigidity (Sprague-Dawley rats [5]; [9]): 0"
CC#CC(C)(C)OC(=O)c1ccnn1[C@H](C)c1ccccc1 [Compound A12],1 to 2,>4,>6,0.69 ± 0.22,3.16 ± 2.13,"Red urine(8/8),; also recorded: Tremor(3/8),; also recorded: Euphoria(1/8), Hindlimb; also recorded: rigidity (1/8), Clonic; also recorded: convulsion(1/8), Tetany; also recorded: Apnea(1/8), Nod(1/8)",0,0,> 100,> 100,
CC(=O)C1=C(OC(=O)c2ccnn2[C@H](C)c2ccccc2)CCC1 [Compound A18],2 to 6,>3,>8,0.73 ± 0.10,1.19 ± 0.64,"Red urine(8/8), Hindlimb; also recorded: rigidity(5/8)",0,0,> 100,> 100,
C[C@H](c1ccccc1)n1nccc1C(=O)OC1CSC1 [Compound A6],2 to 6,>5,>13,0.38 ± 0.12,3.81 ± 2.17,"Red urine(8/8), Facial; also recorded: muscle; also recorded: twitching(2/8), Hindlimb; also recorded: rigidity (1/8)",0,0,> 1000,> 1000,
CCOC(=O)c1cc(F)nn1[C@H](C)c1ccccc1 [Compound A49],2 to 6,>2,>9,0.28 ± 0.04,2.69 ± 1.18,"Red urine(8/8), Hindlimb; also recorded: rigidity (2/8), broken-; also recorded: winded(1/8), Tremor(3/8)",0,0,> 100,> 100,
C[C@H](c1ccccc1)n1cncc1C(=O)COCC1CCC1 [Compound C29],,,,,,,,,,,ED50 (Sprague-Dawley rats [2]; [6]): 2 to 10 mg/kg
C[C@H](c1ccccc1)n1nc(F)cc1C(=O)OC(C)(C)C [Compound A57],2 to 6,>7,>15,0.42 ± 0.16,1.48 ± 0.51,"Red and urine(7/7), GeneralTremor and (2/7), Tetany and convulsion(2/7)",0,0,> 100,> 100,
